This passage reports inhibition and IC50 results from ChEMBL document CHEMBL1938304, “Synthesis, characterization and activity of new phosphonate dipeptides as potential inhibitors of VanX” (Bioorg Med Chem Lett, 2012).

Assay [1] can be described thus: Inhibition of metallo-betalactamase CCrA using penicillin G as substrate up to 1 mM and pH 7.
Assay [2] is described as follows: Inhibition of metallo-betalactamase L1 using penicillin G as substrate up to 1 mM and pH 7.
The target of assay [3] is T1, D-alanyl-D-alanine dipeptidase (Enterococcus faecium, UniProt Q06241).
T1 sequence (Q06241 whole entry): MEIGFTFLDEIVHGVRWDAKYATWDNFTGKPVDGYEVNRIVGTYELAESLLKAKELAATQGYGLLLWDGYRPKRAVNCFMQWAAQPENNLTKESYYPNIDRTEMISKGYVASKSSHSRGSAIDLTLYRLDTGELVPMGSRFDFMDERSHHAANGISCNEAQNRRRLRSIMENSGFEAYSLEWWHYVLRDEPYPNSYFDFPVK
Nature of the assay: Inhibition of Enterococcus faecium VanX overexpressed in Escherichia coli BL21 (DE3) cells using D-ala-D-ala as substrate preincubated for 30 mins measured after 150 secs by modified Cd-ninhydrin method.

Assay [4] is described as follows: Inhibition of metallo-betalactamase ImiS using penicillin G as substrate up to 1 mM and pH 7.
For assay [5], the target named is T1, D-alanyl-D-alanine dipeptidase. Nature of the assay: Competitive inhibition of Enterococcus faecium VanX overexpressed in Escherichia coli BL21 (DE3) cells using D-ala-D-ala as substrate preincubated for 3 mins measured after 150 secs by modified Cd-ninhydrin method.
Assay [6] has as its target T2, D-alanyl-D-alanine dipeptidase (Enterococcus faecium) (UniProt Q06241).
T2 sequence (whole entry): T1 sequence (Q06241 whole entry)
Put plainly: Inhibition of Enterococcus faecium VanX overexpressed in Escherichia coli BL21 (DE3) cells using D-ala-D-ala as substrate up to 5 mM preincubated for 30 mins measured after 150 secs by modified Cd-ninhydrin method.

Active and inactive are the calls of the source. The calls are words filed in the database; no cut-off is given here.

For orientation: IC50 means the concentration needed to halve the response being measured. Regarding `CC[C@H](C)[C@@H](OP(=O)(O)[C@H](C)N)C(=O)O`, the inhibition result in assay [1], in assay [2] and in assay [4] was “inactive” throughout. The molecule further yielded an IC50 in assay [3] of 1310 µM.

Turning to `CC(C)[C@@H](OP(=O)(O)[C@H](C)N)C(=O)O`, the inhibition result in assay [1], in assay [2] and in assay [4] was “inactive” each time. In addition, the IC50 in assay [3] amounted to 2820 µM.

Consider `CC(C)C[C@@H](OP(=O)(O)[C@H](C)N)C(=O)O`, for which the inhibition entry in assay [1], in assay [2] and in assay [4] was “inactive” throughout. The molecule further had an IC50 in assay [3] of 1080 µM.

For `C[C@H](N)P(=O)(O)O[C@H](Cc1ccccc1)C(=O)O`, the inhibition result in assay [1], in assay [2] and in assay [4] was “inactive” throughout. Besides, in assay [3], the IC50 was determined as 8210 µM.

For `C[C@H](N)P(=O)(O)OCC(=O)O`, the inhibition result in assay [1], in assay [2] and in assay [4] was “inactive” throughout. In addition, in assay [3], the midpoint of inhibition, the IC50, lay at 480 µM.

For the molecule `C[C@H](N)P(=O)(O)O[C@H](C)C(=O)O`, the inhibition result in assay [1], in assay [2] and in assay [4] was “inactive” each time. The molecule also registered an IC50 in assay [5] of 760 µM.

On to `C[C@H](N)P(=O)(O)O[C@H](CCC(=O)O)C(=O)O`, for which the inhibition entry in assay [1], in assay [6], in assay [2] and in assay [4] was “inactive” throughout.
